A short description of this data set: gradient 5% acetonitrile 3 min, to 50% in 2 min, to 85% in 15 min, held 3 min, 100 µL/min. The conditions noted are these: column: Zorbax Extend-C18 2.1 x 50 mm; eluents: water / acetonitrile, 0.1% formic acid. The method in brief: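 A Zorbax Extend-C18 column (2.1 × 50 mm, 1.8 μm) run at 100 μL/min with water and acetonitrile, both containing 0.1% formic acid, separated mixtures of ~100 pure standards. The HPLC was coupled to a quadrupole time-of-flight mass spectrometer operated in positive and negative ionization mode, with dead and dwell volumes of 40 μL and 900 μL. Each retention time was taken from a computationally picked adduct peak that was then manually inspected.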
Compound `O=C(CN1C(=O)CC(c2cccs2)=Nc2ccccc21)Nc1ccc(F)cc1` showed an RP-LC retention time of 928 s. `Cc1ccc(N2CCN(C(=O)C3CCCN(c4nccc5sc(C)cc45)C3)CC2)cc1` (configuration not stated) yielded an RP-LC retention time of 747 s. In the case of `CCSC1=NCCN1C(=O)c1ccc(C(F)(F)F)cc1` it was 679 s; in that of `Cc1ccc(NC(=O)C2CCCN(c3ccc(=O)n(-c4cccc(Cl)c4)n3)C2)cc1C` (configuration not stated), 960 s.

The compound `CCCCN(C)C(=O)c1cnc(-c2ccc(C)cc2)nc1-c1ccncc1` came in with an RP-LC retention time of 968 s.

Take `COc1ccc(-c2nnc(-c3ccc(C)c(S(=O)(=O)N(C)C)c3)o2)cc1`: the RP-LC retention time stood at 966 s. In the case of `c1ccc([C@@H]2CN(Cc3ccncc3)C[C@H]2COc2cccnc2)nc1` it was 516 s; in that of `CCOC(=O)c1noc2nc(C)nc(Nc3ccc(C)c(F)c3)c12`, 1230 s; in that of `Cc1ccc2nc(-c3ccc(N4CCOCC4)cc3)c(Nc3ccc4c(c3)OCCO4)n2c1`, 692 s. `COc1ccc(-n2c(N)cc(=O)nc2SCC(=O)NC2CCCCC2)cc1` had an RP-LC retention time of 601 s. Next, `CCn1cc(CCN2CCN(S(=O)(=O)c3cccc(C#N)c3)CC2)c2cccnc21`: 635 s; `O=S(=O)(c1ccccc1Cl)N1CCN(c2ccc(Nc3ccccn3)nn2)CC1`: 593 s. As to `CCCS(=O)(=O)NCc1ccc2c(c1)CCN2C(=O)c1ccc(Cl)cc1`, the RP-LC retention time stood at 918 s.

`COc1cc2c(cc1OC)CC(=O)N(CCCN(C)C[C@H]1Cc3cc(OC)c(OC)cc31)CC2` gave an RP-LC retention time of 677 s. Turning to `Cn1c(=O)oc2cc(-c3noc(-c4cccc(F)c4)n3)ccc21`, the RP-LC retention time is 1020 s. For the compound `Cc1ccc(CCNC(=O)c2cc3n(n2)CC(C)(C(=O)NCc2ccc(F)cc2)N(C)C3=O)cc1` (configuration not stated), the RP-LC retention time came out at 828 s.

In the case of `O=C(C1CCOC1)N1CCC(c2nncn2Cc2ccccc2)CC1` (configuration not stated), the RP-LC retention time was 541 s.

As for `CCN(CC)CCNC(=O)c1nnc(-c2oc3c(C)cccc3c2C)o1`, the RP-LC retention time turned out to be 683 s. In the case of `O=C(NCc1noc(C2CCCCC2)n1)c1coc(C2CC2)n1` it was 889 s.

As to `CCOC(=O)c1nc(NCc2ccccc2OC)c2ccccc2n1`, the RP-LC retention time turned out to be 774 s.

As to `Cn1ccc2cc(S(=O)(=O)N3CCCC(C(=O)NCCCN4CCCCCC4)C3)ccc21` (configuration not stated), the RP-LC retention time is 668 s. As to `COc1ccc(N2CCN(C(=O)C3CCN(c4cncnc4N(C)C)CC3)CC2)cc1`, the RP-LC retention time stood at 602 s. In turn, `CCn1c(C(=O)N2CCC(C(=O)NCc3cccc(OC)c3)CC2)cc2occc21` displayed an RP-LC retention time of 795 s. In the case of `CCOc1ccc2nc(C(=O)NC(CC)c3ccc(OC)cc3)cn2n1` (configuration not stated) it was 897 s; in that of `CCOc1ccc(CNC(=O)C2CCCN(c3ccc(=O)n(-c4ccc(C)c(Cl)c4)n3)C2)cc1` (configuration not stated), 830 s; in that of `O=C(CN1C(=O)CCS(=O)(=O)c2ccccc21)Nc1ccccc1C(F)(F)F`, 746 s. In the case of `Cc1cc(C)cc(C(=O)N2CCN(c3cc(=O)n(C)c(=O)n3C)CC2)c1` it was 691 s; in that of `CCOc1ccccc1N1CCN(S(=O)(=O)c2nn(CC)cc2C(=O)NCCC(C)C)CC1`, 1130 s; in that of `COCCN1C(=O)CS(=O)(=O)C12CCN(C(=O)C1(c3ccc(OC)cc3)CC1)CC2`, 661 s.

The compound `C=CCNC(=O)C1CCN(C(=O)Nc2ccc(NC(=O)Nc3cccc(F)c3)cc2)CC1` came in with an RP-LC retention time of 706 s. In turn, `COc1ccc(-c2noc(-c3nnn4c3COC(c3ccc(C)cc3C)C4)n2)cc1F` (configuration not stated) returned an RP-LC retention time of 1260 s. Next, `CC(C)c1ccc(CNC(=O)c2nnc(-c3ccc(S(=O)(=O)N(C)C)cc3)o2)cc1`: 1010 s.

For the origin of these results see the METLIN SMRT retention time set (Domingo-Almenara et al. 2019).
